According to US20260034119A1, “5-METHOXY-N,N-[…][…], THEIR […], AND METHODS FOR TREATMENT OF NEUROLOGICAL, […], AND SUBSTANCE USE DISORDERS” (priority 2023, published 2026):
Several values for one entry are separate records, joined by “and”; a condition that tells them apart may be missing. Equal entries are not always repeated.

Target: T1, human 5-HT1A (Homo sapiens, UniProt P08908)
T1 sequence (P08908 1-422): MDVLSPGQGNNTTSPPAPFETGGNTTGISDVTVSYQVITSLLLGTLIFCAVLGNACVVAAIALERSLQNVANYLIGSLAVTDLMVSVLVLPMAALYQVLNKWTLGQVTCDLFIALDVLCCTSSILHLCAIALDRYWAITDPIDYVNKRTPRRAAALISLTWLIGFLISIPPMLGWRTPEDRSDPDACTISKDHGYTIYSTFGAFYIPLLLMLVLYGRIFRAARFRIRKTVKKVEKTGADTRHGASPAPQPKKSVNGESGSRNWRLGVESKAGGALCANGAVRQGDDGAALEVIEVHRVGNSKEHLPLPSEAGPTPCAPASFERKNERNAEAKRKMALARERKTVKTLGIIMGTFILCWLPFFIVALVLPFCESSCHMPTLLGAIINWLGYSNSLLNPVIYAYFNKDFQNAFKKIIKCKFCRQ
Test: 5-HT1A-mediated cAMP reduction assay (GloSensor, HEK293-T)
Conditions: Activity (5-HT1A cAMP) EC50 (nM), Table 5

| Compound | EC50 [nM] |
| --- | --- |
| COc1ccc2occ(CCN3CCCC3)c2c1 [Compound 77, 1-(2-(5-methoxybenzofuran-3-yl)ethyl)pyrrolidine] | 7.19 |
| COc1ccc2occ(CCN(C)C)c2c1 [Compound 76, 2-(5-methoxybenzofuran-3-yl)-N,N-dimethylethan-1-amine] | 178 |
| COc1ccc2occ(CCN3CC=CCC3)c2c1 [Compound 79, 1-(2-(5-methoxybenzofuran-3-yl)ethyl)-1,2,3,6-tetrahydropyridine] | 7130 |
| c1cnc2[nH]cc(CCN3CCCC3)c2c1 [Compound 74, 3-(2-(pyrrolidin-1-yl)ethyl)-1H-pyrrolo[2,3-b]pyridine] | 3240 |
| CN(C)CCc1c[nH]c2ncccc12 [Compound 72, N,N-dimethyl-2-(1H-pyrrolo[2,3-b]pyridin-3-yl)ethan-1-amine] | 1910 |
| CCN(CC)CCc1c[nH]c2ncccc12 [Compound 73, N,N-diethyl-2-(1H-pyrrolo[2,3-b]pyridin-3-yl)ethan-1-amine] | 7800 |

Same assay, conditions: EC50 (nM) 5-HT1A cAMP, Table 6, commercial ligands

| Compound | EC50 [nM] |
| --- | --- |
| c1ccc2c(N3CCNCC3)cccc2c1 [N-(1-naphthyl)piperazine, N-(1-Napthyl)piperazine, reference compound] | 50.3 |
| O=C1[C@@H]2[C@H]3CC[C@H](C3)[C@@H]2C(=O)N1CCCCN1CCN(c2ncccn2)CC1 [Tandospirone, reference compound] | 1.51 |

Same assay, conditions: EC50 (nM) Mean Gio(cAMP)-1A, Table 2

| Compound | EC50 [nM] |
| --- | --- |
| COc1ccc2[nH]cc(CCN3C[C@H]4C=C[C@@H]3CC4)c2c1F [Compound 14] | 173 |
| CCN(CC)CCc1c[nH]c2ccc(O)c(F)c12 [Compound 17] | 0.76 |
| COc1ccc2c(c(CCN3CCCC3)cn2C)c1F [Compound 19] | 100 |
| Oc1ccc2[nH]cc(CCN3CCCC3)c2c1F [Compound 18] | 0.04 |
| CC[C@H]1C[C@@H]2C=C[C@H]1N(CCc1c[nH]c3ccc(OC)c(F)c13)C2 [Compound 15] | 47.3 |

Same assay, conditions: Table 6, commercial ligands

| Compound | Efficacy as %5HT 5-HT1A cAMP [%5HT] |
| --- | --- |
| CC1(C)CC(=O)N(CCCCN2CCN(c3ncccn3)CC2)C(=O)C1 [Gepiron, Gepirone, reference compound] | 95.4 |
| c1ccc2c(N3CCNCC3)cccc2c1 [N-(1-naphthyl)piperazine, N-(1-Napthyl)piperazine, reference compound] | 137.0 |
| O=C1[C@@H]2[C@H]3CC[C@H](C3)[C@@H]2C(=O)N1CCCCN1CCN(c2ncccn2)CC1 [Tandospirone, reference compound] | 96.3 |

Same assay, conditions: pEC50 Gio(cAMP)-1A, Table 2

| Compound | EC50 [nM] |
| --- | --- |
| Oc1ccc2[nH]cc(CCN3CCCC3)c2c1F [Compound 18] | 0.0417 |
| CC[C@H]1C[C@@H]2C=C[C@H]1N(CCc1c[nH]c3ccc(OC)c(F)c13)C2 [Compound 15] | 46.8 |

Target: T1, human 5-HT1A
Test: cell-based
Conditions: not given

| Compound | EC50 |
| --- | --- |
| Cc1cccc2c(CCN(C)C)c[nH]c12 [Compound 70, N,N-dimethyl-2-(7-methyl-1H-indol-3-yl)ethan-1-amine] | 1210 nM |
| CCN(C)CCc1c[nH]c2ccccc12 [Compound 2] | 302 nM |
| c1[nH]c2cc3c(cc2c1CCN1CCCC1)OCO3 [Compound 64, 7-(2-(pyrrolidin-1-yl)ethyl)-5H-[1,3]dioxolo[4,5-f]indole] | 3.5 nM |
| COc1ccc2c(CCN(C)C)c[nH]c2c1 [Compound 60, 2-(6-methoxy-1H-indol-3-yl)-N,N-dimethylethan-1-amine] | 3240 nM |
| COc1ccc2[nH]cc(CCN3CCCC3C)c2c1 (stereo not shown) [Compound 19] | 2.4 nM |
| COc1ccc2[nH]cc(CCN3CC=CCC3)c2c1 [Compound 23, 3-(2-(3,6-dihydropyridin-1(2H)-yl)ethyl)-5-methoxy-1H-indole] | 8.77 nM |
| C=CCN(CC=C)CCc1c[nH]c2ccc(OC)cc12 [Compound 17] | 4.66 nM |
| COc1ccc2[nH]cc(CCN3CC=CC3)c2c1F [Compound 37, 3-(2-(2,5-dihydro-1H-pyrrol-1-yl)ethyl)-4-fluoro-5-methoxy-1H-indole] | 0.00229 nM |
| COc1ccc2c(c(CCN3CCCC3)cn2C)c1F [Compound 46, 4-fluoro-5-methoxy-1-methyl-3-(2-(pyrrolidin-1-yl)ethyl)-1H-indole] | 100 nM |
| COc1ccc2c(CCN3CCCC3)c[nH]c2c1 [Compound 61, 6-methoxy-3-(2-(pyrrolidin-1-yl)ethyl)-1H-indole] | 492 nM |
| Fc1cccc2[nH]cc(CCN3CCCC3)c12 [Compound 58, 4-fluoro-3-(2-(pyrrolidin-1-yl)ethyl)-1H-indole] | 16.7 nM |
| CCN(C)CCc1c[nH]c2cccc(O)c12 [Compound 53, 4-OH-MET] | 769 nM |
| COc1ccc2c(CCN3CC=CC3)c[nH]c2c1 [Compound 62, 3-(2-(2,5-dihydro-1H-pyrrol-1-yl)ethyl)-6-methoxy-1H-indole] | 30.9 nM |
| Oc1ccc2[nH]cc(CCN3CCCC3)c2c1F [Compound 42, 4-fluoro-3-(2-(pyrrolidin-1-yl)ethyl)-1H-indol-5-ol] | 0.04 nM and 0.0417 nM |
| CC(C)N(C)CCc1c[nH]c2ccccc12 [Compound 3] | 1980 nM |
| CC[C@H]1C[C@@H]2C=C[C@H]1N(CCc1c[nH]c3ccc(OC)c(F)c13)C2 [Compound 39, (1S,4R,7S)-7-ethyl-2-(2-(4-fluoro-5-methoxy-1H-indol-3-yl)ethyl)-2-aza bicyclo[2.2.2]oct-5-ene] | 47.3 nM and 46.8 nM |
| COc1cccc2[nH]cc(CCN3CCCC3)c12 [Compound 55, 4-methoxy-3-(2-(pyrrolidin-1-yl)ethyl)-1H-indole] | 164 nM |
| C1=CC2CCC1CN2CCc1c[nH]c2ccccc12 (stereo not shown) [Compound 7] | 15500 nM |
| Oc1ccc2[nH]cc(CCN3C[C@H]4C=C[C@@H]3CC4)c2c1 [Compound 51, 3-(2-((1S,4R)-2-azabicyclo[2.2.2]oct-5-eN-2-yl)ethyl)-1H-indol-5-ol] | 149 nM |

| Compound | EC50 |
| --- | --- |
| COc1cccc2[nH]cc(CCN(C)C)c12 [Compound 54, 2-(4-methoxy-1H-indol-3-yl)-N,N-dimethylethan-1-amine] | 558 nM |
| COc1ccc2c(c1)c(CCn1cccc1)cn2C [Compound 45, 3-(2-(1H-pyrrol-1-yl)ethyl)-5-methoxy-1-methyl-1H-indole] | 6580 nM |
| CCN(C)CCc1c[nH]c2ccc(SC)cc12 [Compound 68, N-ethyl-N-methyl-2-(5-(methylthio)-1H-indol-3-yl)ethan-1-amine] | 3.35 nM and 3.31 nM |
| COc1ccc2[nH]cc(CCN3C[C@H]4C=C[C@@H]3CC4)c2c1 [Compound 24] | 628 nM |
| COc1ccc2[nH]cc(CCn3ccnc3)c2c1 [Compound 22, 3-(2-(1H-imidazol-1-yl)ethyl)-5-methoxy-1H-indole] | 292 nM |
| COc1ccc2c(c(CCN3CC=CC3)cn2C)c1F [Compound 47, 3-(2-(2,5-dihydro-1H-pyrrol-1-yl)ethyl)-4-fluoro-5-methoxy-1-methyl-1H-indole] | 2.74 nM |
| CCC1C[C@@H]2C=C[C@H]1N(CCc1c[nH]c3cc4c(cc13)OCO4)C2 (stereo partly drawn) [Compound 66, 7-(2-((1S,4R)-7-ethyl-2-azabicyclo[2.2.2]oct-5-en-2-yl)ethyl)-5H-[1,3]dioxolo[4,5-f]indole] | 1690 nM |
| COc1ccc2c(c1)c(CCN1CC=CC1)cn2C [Compound 44, 3-(2-(2,5-dihydro-1H-pyrrol-1-yl)ethyl)-5-methoxy-1-methyl-1H-indole] | 209 nM |
| CC(C)N(CCc1c[nH]c2ccccc12)C(C)C [Compound 4] | 1330 nM |
| C1=CC2CCC1CN2CCc1c[nH]c2cc3c(cc12)OCO3 (stereo not shown) [Compound 65] | 9890 nM |
| Oc1ccc2[nH]cc(CCN3CCCC3)c2c1 [Compound 50, 3-(2-(pyrrolidine-1-yl)ethyl)-1H-indol-5-ol] | 0.1 nM and 0.0977 nM |
| CN(C)CCc1c[nH]c2cccc(F)c12 [Compound 57, 2-(4-fluoro-1H-indol-3-yl)-N,N-dimethylethan-1-amine] | 87.7 nM |
| COc1ccc2[nH]cc(CCN3C[C@H]4C=C[C@@H]3CC4)c2c1F [Compound 38, (1S,4R)-2-(2-(4-fluoro-5-methoxy-1H-indol-3-yl)ethyl)-2-azabicyclo[2.2.2]oct-5-ene] | 173 nM |
| c1ccc2c(CCN3CCCC3)c[nH]c2c1 [Compound 5] | 19.1 nM |
| c1ccc(COc2ccc3[nH]cc(CCN4CCCC4)c3c2)cc1 [Compound 48, 5-(benzyloxy)-3-(2-(pyrrolidin-1-yl)ethyl)-1H-indole] | 33 nM |
| COc1ccc2c(c1)c(CCN1CCCC1)cn2C [Compound 43, 5-methoxy-1-methyl-3-(2-(pyrrolidin-1-yl)ethyl)-1H-indole] | 89.1 nM |
| CN(C)CCc1c[nH]c2cc3c(cc12)OCO3 [Compound 63, 2-(5H-[1,3]dioxolo[4,5-f]indol-7-yl)-N,N-dimethylethan-1-amine] | 64.4 nM and 64.6 nM |
| c1ccc2c(CCN3CCCCC3)c[nH]c2c1 [Compound 6] | 485 nM |

Target: 5-HT1A (Homo sapiens, UniProt P08908)
Test: BRET signaling assay: 5-HT1A-mediated activation of heterotrimeric Gi1 (TRUPATH, HEK293-T)
Conditions: EC50 (nM), Gi1 BRET, 5-HT1A WT

| Compound | EC50 [nM] |
| --- | --- |
| CN(C)CCc1c[nH]c2ccc(O)cc12 [Bufotenine (5-OH-DMT), Bufotenine, reference compound] | 9.29 |

Same assay, conditions: Gi BRET EC50

| Compound | EC50 [nM] |
| --- | --- |
| COc1ccc2[nH]cc(CCN3CC=CC3)c2c1F [Compound 37, 3-(2-(2,5-dihydro-1H-pyrrol-1-yl)ethyl)-4-fluoro-5-methoxy-1H-indole] | 0.22 |
| CCN(CC)CCc1c[nH]c2ccc(OC)cc12 [Compound 11, 5-MeO-DET] | 37.1 |

Same assay, conditions: HEK-293T, read-out: Emax, 5-HT1A-mediated activation of Gi1 (BRET)

| Compound | Emax [%] |
| --- | --- |
| O=C1CCc2ccc(OCCCCN3CCN(c4cccc(Cl)c4Cl)CC3)cc2N1 [Aripiprazole, aripiprazole, reference compound] | 77.1 |

Same assay, conditions: Table 6, commercial ligands

| Compound | Efficacy as %5HT 5-HT1A BRET Gi1 [%5HT] |
| --- | --- |
| O=C1CCc2ccc(OCCCCN3CCN(c4cccc(Cl)c4Cl)CC3)cc2N1 [Aripiprazole, aripiprazole, reference compound] | 77.1 |

Same assay, conditions: read-out: Gi BRET EC50

| Compound | EC50 [nM] |
| --- | --- |
| COc1ccc2[nH]cc(CCN3CCCCC3)c2c1 [Compound 5-MeO-PipT, 5-methoxypiperidinyl-tryptamine] | 88.5 |

Same assay, conditions: relative to 5-MeO-PyrT

| Compound | loss of potency at 5-HT1A [fold] |
| --- | --- |
| COc1ccc2[nH]cc(CCN3CCCCC3)c2c1 [Compound 5-MeO-PipT, 5-methoxypiperidinyl-tryptamine] | ~42 |

Target: 5-HT2A (Homo sapiens, UniProt P28223)
Sequence (P28223 whole entry): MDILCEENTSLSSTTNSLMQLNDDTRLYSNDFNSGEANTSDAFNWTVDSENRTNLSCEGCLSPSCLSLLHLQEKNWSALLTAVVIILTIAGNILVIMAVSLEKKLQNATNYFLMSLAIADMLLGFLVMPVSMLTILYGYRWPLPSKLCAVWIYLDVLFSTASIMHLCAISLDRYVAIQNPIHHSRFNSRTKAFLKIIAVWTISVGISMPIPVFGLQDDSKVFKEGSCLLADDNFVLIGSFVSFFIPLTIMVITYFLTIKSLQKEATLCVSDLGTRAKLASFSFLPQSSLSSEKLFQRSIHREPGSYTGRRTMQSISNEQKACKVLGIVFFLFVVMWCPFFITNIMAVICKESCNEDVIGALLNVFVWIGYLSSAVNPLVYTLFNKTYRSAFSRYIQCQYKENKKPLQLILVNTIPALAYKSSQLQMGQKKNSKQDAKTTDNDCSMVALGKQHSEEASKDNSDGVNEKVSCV
Test: cell-based
Conditions: not given

| Compound | EC50 |
| --- | --- |
| COc1ccc2[nH]cc(CCN3CC=CC3)c2c1F [Compound 37, 3-(2-(2,5-dihydro-1H-pyrrol-1-yl)ethyl)-4-fluoro-5-methoxy-1H-indole] | 120 nM |
| CN(C)CCc1c[nH]c2ccccc12 [Compound 1] | 94.4 nM and 93.3 nM |
